# Results: ChEMBL document CHEMBL5543113, “Amphiphilic α-Peptoid-deoxynojirimycin Conjugate-based Multivalent Glycosidase Inhibitor for Hypoglycemic Effect and Fluorescence Imaging” (J Med Chem, 2024)
# Calls of active or inactive are those of the source. The rule behind the calls is not given here.
# Assays:
# [1] = Stability of compound assessed as fluorescence intensity at 2 x 10^-4 M administered as Nile red complex at pH 1.0 to 7.0 by fluorescence spectra analysis 9Rvb = 3548); format: physicochemical; conditions: pH 1, 200 µM; dose 2 10^-4M
# [2] = Drug uptake in C57/6J mouse spleen assessed as increase in fluorescence at 5 x 10^-5M, po administered as Nile red complex and measured after 4 hrs by fluorescence imaging analysis; format: ADME, organism-based; conditions: in vivo, dose 5 10^-5M
# [3] = Cytotoxicity against human GES1 cells assessed as viable cells at 125 uM incubated for 44 hrs by MTT assay relative to control; format: toxicity, cell-based; conditions: read-out: Activity
# Mus musculus [4] = experiment: Relative hypoglycemic rate in KKAy diabetic mouse model assessed as molar reduction in PBG level by measuring fold change at 1.6 mg/kg, po co-administered with maltose and measured after 30 mins by glucometer relative to miglitol; format: functional; conditions: 0.5 h
# [5] = Drug uptake in C57/6J mouse liver assessed as increase in fluorescence at 5 x 10^-5M, po administered as Nile red complex and measured after 4 hrs by fluorescence imaging analysis; format: ADME, organism-based; conditions: in vivo, dose 5 10^-5M
# Mus musculus [6] = experiment: Relative hypoglycemic rate in C57BL/6J mouse assessed as reduction in PBG level by measuring fold change at 1.6 mg/kg, po co-administered with maltose and measured after 30 mins by glucometer relative to miglitol; format: functional; conditions: 0.5 h
# [7] = Self assembly property of the compound assessed as diameter at 5 x 10^-5 mol/L by dynamic light scattering spectrometric analysis; format: physicochemical; conditions: 50 µM; dose 5 10^-5mol/L
# Mus musculus [8] = experiment: Hypoglycemic activity in C57BL/6J mouse assessed as blood glucose level at 0.4 mg/kg, po co-administered with maltose and measured after 15 mins by glucometer (380.8 +/- 20.6 mg/dl); format: functional; conditions: 0.25 h
# [9] = Stability of compound in simulated intestinal fluid at 2 x 10^-4 M administered as Nile red complex by fluorescence spectra analysis; format: ADME; conditions: simulated gi fluid, 200 µM; dose 2 10^-4M
# [10] = Self assembly property of the compound assessed as diameter at 2 x 10^-4 mol/L by dynamic light scattering spectrometric analysis; format: physicochemical; conditions: 200 µM; dose 2 10^-4mol/L
# Mus musculus [11] = experiment: Hypoglycemic activity in KKAy diabetic mouse model assessed as blood glucose level at 1.6 mg/kg, po co-administered with maltose and measured after 30 mins by glucometer (reference value: 582.6 +/- 22.9 mg/dl); format: functional; conditions: 0.5 h
# [12] = Self assembly property of compound assessed as Nilered-compound complex formation by measuring critical micellar concentration at 638 nm by Nile red dye based fluorescence analysis; format: physicochemical
# Mus musculus [13] = experiment: Hypoglycemic activity in C57BL/6J mouse assessed as reduction in PBG level measured per DNJ unit at 0.4 mg/kg, po co-administered with maltose and measured at 15 to 30 mins by glucometer relative to control; format: functional; set-up: scale not given: the % may be the effect or the level left; conditions: time 15-30 min
# [14] = Drug uptake in C57/6J mouse kidney assessed as increase in fluorescence at 5 x 10^-5M, po administered as Nile red complex and measured after 4 hrs by fluorescence imaging analysis; format: ADME, organism-based; conditions: in vivo, dose 5 10^-5M
# [15] = Inhibition of rice Alpha-glucosidase incubated for 10 mins by Lineweaver-Burk plot analysis; set-up: species or system Oryza sativa
# Mus musculus [16] = experiment: Hypoglycemic activity in C57BL/6J mouse assessed as decrease in PBG level at 0.4 mg/kg, po co-administered with maltose and measured after 15 mins by glucometer relative to control; format: functional; set-up: scale not given: the % may be the effect or the level left; conditions: 0.25 h
# Mus musculus [17] = experiment: Hypoglycemic activity in C57BL/6J mouse assessed as blood glucose level at 0.8 mg/kg, po co-administered with maltose and measured after 30 mins by glucometer (380.8 +/- 20.6 mg/dL); format: functional; conditions: 0.5 h
# Mus musculus [18] = experiment: Hypoglycemic activity in C57BL/6J mouse assessed as blood glucose level at 1.6 mg/kg, po co-administered with maltose and measured after 30 mins by glucometer (380.8 +/- 20.6 mg/dL); format: functional; conditions: 0.5 h
# [19] = Toxicity in C57BL/6J mouse assessed as effect on lung morphology at 1.6 mg/kg, po co-administered with maltose for 7 days by Hematoxylin and eosin staining based analysis; format: organism-based; conditions: in vivo, 168 h, time 7 day
# [20] = Self assembly property of the compound assessed as diameter at 7.5 x 10^-5 mol/L by dynamic light scattering spectrometric analysis; format: physicochemical; conditions: 75 µM; dose 7.5 10^-5mol/L
# Mus musculus [21] = experiment: Hypoglycemic activity in KKAy diabetic mouse model assessed as blood glucose level at 1.6 mg/kg, po co-administered with maltose and measured after 60 mins by glucometer (reference value: 582.6 +/- 22.9 mg/dl); format: functional; conditions: 1 h
# Mus musculus [22] = experiment: Hypoglycemic activity in KKAy diabetic mouse model assessed as decrease in PBG level at 1.6 mg/kg, po co-administered with maltose and measured after 15 mins by glucometer relative to control; format: functional; set-up: scale not given: the % may be the effect or the level left; conditions: 0.25 h
# [23] = Inhibition of Aspergillus niger Alpha-glucosidase incubated for 10 mins by Lineweaver-Burk plot analysis
# [24] = Self assembly property of the compound in water assessed as mean diameter at 1 x 10^-4 M by dynamic light scattering spectrometric analysis; format: physicochemical; conditions: buffer, 100 µM; dose 1 10^-4M
# [25] = Self assembly property of the compound in water assessed as diameter at 1 x 10^-4 M by transmission electron microscopic analysis; format: physicochemical; conditions: buffer, 100 µM; dose 1 10^-4M
# [26] = Toxicity in C57BL/6J mouse assessed as effect on heart morphology at 1.6 mg/kg, po co-administered with maltose for 7 days by Hematoxylin and eosin staining based analysis; format: organism-based; conditions: in vivo, 168 h, time 7 day
# [27] = Self assembly property of the compound assessed as diameter at 2.5 x 10^-5 mol/L by dynamic light scattering spectrometric analysis; format: physicochemical; conditions: 25 µM; dose 2.5 10^-5mol/L
# Mus musculus [28] = experiment: Binding affinity to mouse alpha-glucosidase assessed as decrease in fluorescence intensity at 200 uM administered as Nile red complex in presence of miglitol by fluorescence spectra analysis
# Oryza sativa = experiment: Potency index, ratio of miglitol Ki to test compound Ki for inhibition of rice Alpha-glucosidase incubated for 10 mins by Lineweaver-Burk plot analysis
# [29] = Inhibition of C57BL/6J mouse Alpha-glucosidase incubated for 10 mins by Lineweaver-Burk plot analysis
# Aspergillus niger = experiment: Potency index, ratio of 1-deoxynojirimycin Ki to test compound Ki for inhibition of Aspergillus niger Alpha-glucosidase incubated for 10 mins by Lineweaver-Burk plot analysis
# Mus musculus [30] = experiment: Hypoglycemic activity in KKAy diabetic mouse model assessed as molar decrease in PBG level at 1.6 mg/kg, po co-administered with maltose and measured after 30 mins by glucometer relative to control; format: functional; set-up: scale not given: the % may be the effect or the level left; conditions: 0.5 h
# [31] = Self assembly property of the compound assessed as diameter at 1 x 10^-5 mol/L by dynamic light scattering spectrometric analysis; format: physicochemical; conditions: 10 µM; dose 1 10^-5mol/L
# Mus musculus [32] = experiment: Hypoglycemic activity in KKAy diabetic mouse model assessed as blood glucose level at 1.6 mg/kg, po co-administered with maltose and measured after 15 mins by glucometer (reference value: 582.6 +/- 22.9 mg/dl); format: functional; conditions: 0.25 h
# Mus musculus [33] = experiment: Hypoglycemic activity in C57BL/6J mouse assessed as decrease in PBG level at 0.8 mg/kg, po co-administered with maltose and measured after 15 mins by glucometer relative to control; format: functional; set-up: scale not given: the % may be the effect or the level left; conditions: 0.25 h
structure (smiles),measurement,setting,value
CCCCCCCCCCCCCCCCCCNC(=O)CN(Cc1cn(CCCCCCN2C[C@H](O)[C@@H](O)[C@H](O)[C@H]2CO)nn1)C(=O)CN(Cc1cn(CCCCCCN2C[C@H](O)[C@@H](O)[C@H](O)[C@H]2CO)nn1)C(=O)CN(Cc1cn(CCCCCCN2C[C@H](O)[C@@H](O)[C@H](O)[C@H]2CO)nn1)C(=O)CN(Cc1cn(CCCCCCN2C[C@H](O)[C@@H](O)[C@H](O)[C@H]2CO)nn1)C(C)=O,Flu intensity,[1],1001
same,Drug uptake,[2],Not Active
same,"viability at 44 h, 125 µM",[3],> 80%
same,fold change (FC),Mus musculus [4],6.9
same,Drug uptake,[5],Not Active
same,fold change (FC),Mus musculus [6],1.8
same,Activity,[7],233 nm
same,Activity,Mus musculus [8],347.8 mg/dL
same,Stability,[9],Stable
same,Activity,[10],285 nm
same,Activity,Mus musculus [11],419.7 mg/dL
same,CAC,[12],8.31 10^-5M
same,Activity,Mus musculus [13],22.2%
same,Drug uptake,[14],Not Active
same,Ki,[15],27 nM
same,Activity,Mus musculus [16],6.5%
same,Activity,Mus musculus [17],287.6 mg/dL
same,Activity,Mus musculus [18],230.4 mg/dL
same,Activity,[19],Non-Toxic
same,Activity,[20],243 nm
same,Activity,Mus musculus [21],432.6 mg/dL
same,Activity,Mus musculus [22],6.6%
same,Ki,[23],170 nM
same,Activity,[24],283 nm
same,Activity,[25],96 nm
same,Activity,[26],Non-Toxic
same,Activity,[27],195 nm
same,Activity,Mus musculus [28],inactive
same,Ratio Ki,Oryza sativa,6.7
same,Ki,[29],2700 nM
same,Ratio Ki,Aspergillus niger,21.2
same,Activity,Mus musculus [30],7.6%
same,Activity,[31],179 nm
same,Activity,Mus musculus [32],327.6 mg/dL
same,Activity,Mus musculus [33],12.2%
